Experiments:
Type in all cases: in vivo
[1] = tested on: Abutilon theophrasti (ABUTH); experiment: Post-emergence Test (glasshouse, percentage damage to the plant); conditions: post-emergence spray, 1000 g/ha unless otherwise stated, evaluated after 13 days
In short: (§1)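 Sown pots; spray 1000 g/ha (unless stated) in acetone/water 50:50 + 0.5% Tween 20; glasshouse 24/16 °C, 14 h light, 65% RH; watered twice daily; % damage read at 13 days, scored 1–5.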

[2] = tested on: Amaranthus retoflexus (AMARE); experiment: as above; conditions: post-emergence spray, 1000 g/ha unless otherwise stated, evaluated after 13 days
In short: as §1

[3] = tested on: Echinochloa crus-galli (ECHCG); experiment: as above; conditions: post-emergence spray, 1000 g/ha unless otherwise stated, evaluated after 13 days
In short: as §1

[4] = tested on: Ipomoea hederacea (IPOHE); experiment: as above; conditions: post-emergence spray, 1000 g/ha unless otherwise stated, evaluated after 13 days
In short: (§2)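 Seeds sown in pots in glasshouse (24/16 °C day/night, 14 h light, 65% humidity), then sprayed with compound at 1000 g/ha unless stated, from acetone/water 50:50 with 0.5% Tween 20. Damage assessed 13 days later on five-point scale (1=0–20% to 5=81–100%).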

Setaria faberi (SETFA) [5] = experiment: as above; conditions: post-emergence spray, 1000 g/ha unless otherwise stated, evaluated after 13 days
In short: as §2

Zea mays (ZEAMX) [6] = experiment: as above; conditions: post-emergence spray, 1000 g/ha unless otherwise stated, evaluated after 13 days
In short: as §2

[7] = tested on: Amaranthus retoflexus (AMARE); experiment: Pre-emergence Test (glasshouse, percentage damage to the plant); conditions: 1000 g/ha unless otherwise stated, five-point scale
Setaria faberi (SETFA) [8] = experiment: as above; conditions: 1000 g/ha unless otherwise stated, five-point scale
[9] = tested on: Echinochloa crus-galli (ECHCG); experiment: as above; conditions: 1000 g/ha unless otherwise stated, five-point scale
[10] = tested on: Ipomoea hederacea (IPOHE); experiment: as above; conditions: 1000 g/ha unless otherwise stated, five-point scale
[11] = tested on: Abutilon theophrasti (ABUTH); experiment: as above; conditions: 1000 g/ha unless otherwise stated, five-point scale
Zea mays (ZEAMX) [12] = experiment: as above; conditions: 1000 g/ha unless otherwise stated, five-point scale

SMILES | Post-emergence Test ABUTH, percentage damage to the plant (five-point scale) [1] | Post-emergence Test AMARE, percentage damage to the plant (five-point scale) [2] | Post-emergence Test ECHCG, percentage damage to the plant (five-point scale) [3] | Post-emergence Test IPOHE, percentage damage to the plant (five-point scale) [4] | Post-emergence Test SETFA, percentage damage to the plant (five-point scale) (Setaria faberi (SETFA) [5]) | Post-emergence Test ZEAMX, percentage damage to the plant (five-point scale) (Zea mays (ZEAMX) [6]) | percentage damage to the plant, AMARE [7] | percentage damage to the plant, SETFA (Setaria faberi (SETFA) [8]) | percentage damage to the plant, ECHCG [9] | percentage damage to the plant, IPOHE [10] | percentage damage to the plant, ABUTH [11] | percentage damage to the plant, ZEAMX (Zea mays (ZEAMX) [12])
CCn1c(C)c(-c2ccc(F)cc2C)c(=O)c(C(=O)O)c1-c1ccc(Cl)c(Cl)c1 [Compound 155, 2-(3,4-dichlorophenyl)-1-ethyl-5-(4-fluoro-2-methyl-phenyl)-6-methyl-4-oxo-pyridine-3-carboxylic acid] | 4 (4=61-80%) | 3 (3=41-60%) | 4 (4=61-80%) | 4 (4=61-80%) | 4 (4=61-80%) | 4 (4=61-80%) | 1 (1=0-20%) | 5 (5=81-100%) | 5 (5=81-100%) | 1 (1=0-20%) | 2 (2=21-40%) | 1 (1=0-20%)
CCn1c(C)c(-c2ccnc(OC)c2)c(=O)c(C(=O)O)c1-c1ccc(Cl)c(Cl)c1 [Compound 53, 2-(3,4-dichlorophenyl)-1-ethyl-5-(2-methoxy-4-pyridyl)-6-methyl-4-oxo-pyridine-3-carboxylic acid] | 4 (4=61-80%) | 3 (3=41-60%) | 3 (3=41-60%) | 2 (2=21-40%) | 4 (4=61-80%) | 2 (2=21-40%) | 1 (1=0-20%) | 4 (4=61-80%) | 3 (3=41-60%) | 3 (3=41-60%) | 3 (3=41-60%) | 1 (1=0-20%)
CCn1c(C)c(-c2cc(C)cc(C(F)(F)F)c2)c(=O)c(C(=O)O)c1-c1ccc(Cl)c(Cl)c1 [Compound 67, 2-(3,4-dichlorophenyl)-1-ethyl-6-methyl-5-[3-methyl-5-(trifluoromethyl)phenyl]-4-oxo-pyridine-3-carboxylic acid] | 2 (2=21-40%) | 1 (1=0-20%) | 1 (1=0-20%) | 1 (1=0-20%) | 1 (1=0-20%) | 1 (1=0-20%) | 1 (1=0-20%) | 1 (1=0-20%) | 1 (1=0-20%) | 1 (1=0-20%) | 1 (1=0-20%) | 1 (1=0-20%)
CCn1c(C)c(-c2ccc(F)c(F)c2)c(=O)c(C(=O)O)c1-c1ccc(Cl)c(Cl)c1 [Compound 104, 2-(3,4-dichlorophenyl)-5-(3,4-difluorophenyl)-1-ethyl-6-methyl-4-oxo-pyridine-3-carboxylic acid] | 3 (3=41-60%) | 3 (3=41-60%) | 3 (3=41-60%) | 1 (1=0-20%) | 4 (4=61-80%) | 1 (1=0-20%) | 4 (4=61-80%) | 4 (4=61-80%) | 2 (2=21-40%) | 1 (1=0-20%) | 2 (2=21-40%) | 1 (1=0-20%)
CCn1c(C)c(-c2ccnnc2)c(=O)c(C(=O)O)c1-c1ccc(Cl)cc1 [Compound 180, 2-(4-chlorophenyl)-1-ethyl-6-methyl-4-oxo-5-pyridazin-4-yl-pyridine-3-carboxylic acid] | 0 | 0 | 0 | 2 (2=21-40%) | 0 | 0 | 0 | 0 | 0 | 0 | 0 | 0
CCn1c(C)c(-c2ccc(OC(F)(F)F)cc2)c(=O)c(C(=O)O)c1-c1ccc(Cl)c(Cl)c1 [Compound 95, 2-(3,4-dichlorophenyl)-1-ethyl-6-methyl-4-oxo-5-[4-(trifluoromethoxy)phenyl]pyridine-3-carboxylic acid] | 3 (3=41-60%) | 3 (3=41-60%) | 3 (3=41-60%) | 2 (2=21-40%) | 3 (3=41-60%) | 2 (2=21-40%) | 1 (1=0-20%) | 4 (4=61-80%) | 2 (2=21-40%) | 1 (1=0-20%) | 1 (1=0-20%) | 1 (1=0-20%)
CCn1c(C)c(-c2cc(C)cs2)c(=O)c(C(=O)O)c1-c1ccc(Cl)cc1 [Compound 167, 2-(4-chlorophenyl)-1-ethyl-6-methyl-5-(4-methyl-2-thienyl)-4-oxo-pyridine-3-carboxylic acid] | 4 (4=61-80%) | 0 | 1 (1=0-20%) | 3 (3=41-60%) | 2 (2=21-40%) | 1 (1=0-20%) | 1 (1=0-20%) | 2 (2=21-40%) | 0 | 1 (1=0-20%) | 3 (3=41-60%) | 3 (3=41-60%)
CCn1c(C)c(-c2ccc(S(=O)(=O)CC)cc2)c(=O)c(C(=O)O)c1-c1ccc(Cl)c(Cl)c1 [Compound 66, 2-(3,4-dichlorophenyl)-1-ethyl-5-(4-ethylsulfonylphenyl)-6-methyl-4-oxo-pyridine-3-carboxylic acid] | 3 (3=41-60%) | 1 (1=0-20%) | 2 (2=21-40%) | 2 (2=21-40%) | 3 (3=41-60%) | 1 (1=0-20%) | 1 (1=0-20%) | 4 (4=61-80%) | 2 (2=21-40%) | 1 (1=0-20%) | 1 (1=0-20%) | 1 (1=0-20%)

From patent US12660819B2, “Herbicidal derivatives” (SYNGENTA CROP PROTECTION AG, priority 2020, dated 2026)
